Measurements: PubChem BioAssay (NCI)
“And” between values parts separate entries of the source, which are not always exact repeats. Equal entries are not always repeated.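 Cultured in 96-well plates, cells were exposed to test compound for 48 hours across five concentrations. The concentration for 50% growth inhibition is given as GI50. TGI is the concentration that stops growth completely.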

How the values were obtained:
Assay in all cases: NCI tumour cell line growth inhibition, 48 h
A498 renal = system: A498 renal
CAKI-1 renal = system: CAKI-1 renal
COLO 205 colon = system: COLO 205 colon
EKVX NSCLC = system: EKVX NSCLC
MCF7 breast = system: MCF7 breast
OVCAR-4 ovarian = system: OVCAR-4 ovarian
SF-295 CNS = system: SF-295 CNS
SN12C renal = system: SN12C renal
T-47D breast = system: T-47D breast
NCI-H460 lung = system: NCI-H460 lung

Compound | TGI (A498 renal) | TGI (CAKI-1 renal) | TGI (COLO 205 colon) | TGI (EKVX NSCLC) | TGI (MCF7 breast) | TGI (OVCAR-4 ovarian) | TGI (SF-295 CNS) | TGI (SN12C renal) | TGI (T-47D breast) | TGI (NCI-H460 lung) | GI50 (CAKI-1 renal) | GI50 (COLO 205 colon) | GI50 (MCF7 breast) | GI50 (OVCAR-4 ovarian) | GI50 (SF-295 CNS) | GI50 (SN12C renal)
c1ccc2c3c(ccc2c1)CSCc1ccc2ccccc2c1-3 | > 100 µM | > 100 µM | > 100 µM | > 100 µM | > 100 µM | > 100 µM | > 100 µM | > 100 µM | > 100 µM |  |  |  |  |  |  | 
O=C1C/C(=C\O)C(=O)c2ccccc2N1 | > 100 µM | > 100 µM | > 100 µM | > 100 µM | > 100 µM | > 100 µM | > 100 µM | > 100 µM | > 100 µM | > 100 µM |  |  |  |  |  | 
O=C1c2ccccc2S(=O)(=O)c2ccccc21 | > 100 µM | > 100 µM | > 100 µM | > 100 µM | > 100 µM | > 100 µM | > 100 µM | > 100 µM | > 100 µM | > 100 µM |  |  |  |  |  | 
OC(CC(c1ccccc1)c1ccc(Cl)cc1)c1ccc(Cl)cc1 (stereo not given) | 69.1 µM | > 100 µM | 34.8 µM | 74.7 µM | 86.2 µM | > 100 µM | 92 µM | > 100 µM | 88.4 µM | > 100 µM |  |  |  |  |  | 
C/C(=N\N=C(N)N)c1c(C(=O)OCCCCCCOC(=O)c2nc3sccn3c2/C(C)=N/N=C(N)N)nc2sccn12 | > 100 µM | > 100 µM | > 100 µM | > 100 µM | > 100 µM | > 100 µM |  | > 100 µM | 42.5 µM | > 100 µM |  |  |  |  |  | 
Cc1ccc(Nc2nc(=O)[nH]c(=O)[nH]2)cc1N | > 100 µM | > 100 µM | > 100 µM | > 100 µM | > 100 µM | > 100 µM | > 100 µM | > 100 µM | > 100 µM | > 100 µM |  |  |  |  |  | 
CCCCCCCCCCCCCCCCP(=O)(O)OP(=O)(O)OCC1OC(n2ccc(N)nc2=O)C(O)C1O (stereo not given) | > 47.9 µM | > 100 µM | > 100 µM | > 100 µM | > 100 µM | > 100 µM | > 100 µM and 56.5 µM | > 100 µM | > 100 µM | > 100 µM | 75.8 µM and 11.9 µM | 54.7 µM and 19 µM | > 100 µM and 11.4 µM | 91.4 µM and 43.8 µM | 43 µM and 20.5 µM | 54.5 µM and 9.05 µM
CC1CN=C(c2cccc(OCc3ccc(COc4cccc(C5=NCC(C)N5)c4)cc3)c2)N1 (stereo not given) | > 100 µM | > 100 µM | 39 µM | > 100 µM | > 100 µM | > 100 µM | > 100 µM | > 100 µM | > 100 µM | 78.5 µM |  |  |  |  |  | 
O=C1c2cc(Cl)ccc2-n2c(noc2=O)C2CSCN12 (stereo not given) | > 100 µM | > 100 µM | > 100 µM | > 100 µM | > 100 µM | > 100 µM | > 100 µM | > 100 µM | > 100 µM | > 100 µM |  |  |  |  |  | 
CC1=NNC(N)=N/C1=C/C(Sc1ccc(Cl)cc1)c1cccs1 (stereo not given) | 37.1 µM | 53.9 µM | 46.2 µM | 30.3 µM | 20.4 µM | 76.6 µM | 31.3 µM | 99.7 µM | 62.2 µM | 30.5 µM |  |  |  |  |  | 
CC1=NN(c2ccc(C)cc2)C2(C1)SCC(=O)N2c1nc2ccccc2s1 (stereo not given) | 70.6 µM | > 100 µM | 57.9 µM | 99.1 µM | 48.8 µM | > 100 µM | > 100 µM | 52.2 µM | 67.1 µM | 56.5 µM |  |  |  |  |  | 
CCOC(=O)c1cc(-c2ccc(OC)c(OC)c2)c[nH]1 | > 10 µM | > 10 µM | > 10 µM | > 10 µM | > 10 µM | > 10 µM | > 10 µM | > 10 µM | > 10 µM | > 10 µM |  |  |  |  |  | 
Oc1c2cccc1Cc1cccc3c1OCCOCCOCCOCCOc1c(cccc1Cc1cccc(c1O)C3)C2 | > 100 µM | > 100 µM | > 100 µM | > 100 µM | > 100 µM | > 100 µM | > 100 µM | > 100 µM | > 100 µM |  |  |  |  |  |  | 
C=C[C@]1(C)CC[C@]2(C)C(CC[C@@]3(C)C2C[C@H](O)[C@H](O)[C@@]3(C)O)C1 (stereo not given in full) | > 100 µM | > 100 µM | > 100 µM | > 100 µM | > 100 µM |  | > 100 µM | > 100 µM | > 100 µM | > 100 µM |  |  |  |  |  | 
O=C1/C(=C/c2ccccc2S)N=C(c2ccccc2)N1c1ccc2c(c1)Sc1cc(N3C(=O)/C(=C/c4ccccc4S)N=C3c3ccccc3)ccc1N2 | 35.4 µM | 41.7 µM | > 100 µM | 41.6 µM | 39.1 µM | 90.5 µM | 39.9 µM | 34.3 µM | 51.3 µM | 63.7 µM |  |  |  |  |  | 
COc1ccc(N2C(=O)C3c4[nH]c5ccc(C)cc5c4C4CCC(C(C)C)CC4C3C2=O)cc1 (stereo not given) | > 100 µM | > 100 µM | > 100 µM | > 100 µM | > 100 µM | > 100 µM | > 100 µM | > 100 µM | > 100 µM | > 100 µM |  |  |  |  |  | 
CSc1c(C(C)=O)c(O)n(-c2ccc(Cl)cc2)c(=O)c1C#N | 93.5 µM | 53.2 µM | 65.6 µM | > 100 µM | > 100 µM | > 100 µM |  | > 100 µM | > 100 µM | > 100 µM |  |  |  |  |  | 
Cc1ccc(-c2cc(-c3ccc(Cl)cc3)nc(/N=C3\C(=O)N(CN4CCCCC4)c4ccc(Cl)cc43)n2)cc1 | 42.3 µM | 64.7 µM | 80.5 µM | > 100 µM | 77.9 µM | > 100 µM | > 100 µM | 62.3 µM | > 100 µM | > 100 µM |  |  |  |  |  | 
O=C(C[C@@H]1NCCC[C@H]1O)Cn1cnc2cc(Br)c(Cl)cc2c1=O | 0.316 µM | 0.313 µM | 0.0391 µM | 0.803 µM | 20.3 µM | 0.0809 µM | 0.337 µM | 0.0726 µM | 0.082 µM | > 100 µM |  |  |  |  |  | 
CC1=NN(c2nc(N)nc(/C(C#N)=C/c3ccncc3)n2)C(C)(C)C1 | > 100 µM | > 100 µM | > 100 µM | > 100 µM | > 100 µM | > 100 µM | > 100 µM |  | > 100 µM | > 100 µM |  |  |  |  |  | 
